Structures can show the parent of a compound that is named as a salt.
Target: Recombinant human JAK3 enzyme (JAK3 kinase region; Ala795-Ser1124) (Homo sapiens, UniProt P52333)
Assay: JAK3 Kinase Assay (Kinase-Glo luminescent, ATP consumption)
Settings: read-out: Inhibition rate (%) of JAK3 kinase activity
Description: Recombinant human JAK3 enzyme (JAK3 kinase region; Ala795-Ser1124) was purchased from Carna Biosciences, Inc.
The reaction was conducted in a kinase buffer (reaction volume: a total of 50 μl) containing 8 mM MOPS (pH 7.0), 0.2 mM EDTA, a test compound solution prepared to each concentration and 0.5 μg/ml JAK3 enzyme using a 96-well polystyrene plate (clear-bottom white-wall). […] After incubating them at room temperature for 2 hours, 50 μl of Kinase-Glo Luminescent Kinase Assay reagent (Promega) was added to each well, and further incubated at room temperature for 10 minutes. Using a chemiluminescence microplate reader MicroLumat LB96P (Berthold), chemiluminescence intensity was measured to quantitate the amount of ATP remaining after reaction. From the amount of ATP consumed in the phosphorylation reaction, the inhibition rate (%) of JAK3 kinase activity was determined.

Chain of Recombinant human JAK3 enzyme (JAK3 kinase region; Ala795-Ser1124) (P52333 795-1124): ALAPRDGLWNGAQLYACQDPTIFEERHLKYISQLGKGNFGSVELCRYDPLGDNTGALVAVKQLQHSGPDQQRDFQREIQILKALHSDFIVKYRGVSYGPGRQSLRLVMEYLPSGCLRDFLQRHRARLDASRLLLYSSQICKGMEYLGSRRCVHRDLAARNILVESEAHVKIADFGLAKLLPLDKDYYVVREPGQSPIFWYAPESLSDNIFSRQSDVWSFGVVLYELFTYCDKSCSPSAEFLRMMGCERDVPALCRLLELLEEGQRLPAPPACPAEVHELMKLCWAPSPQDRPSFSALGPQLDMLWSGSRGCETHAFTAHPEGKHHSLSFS

inhibition at 0.1 µM [%]	inhibition at 1 µM [%]	SMILES
77		NCCS(=O)(=O)Nc1ccc(Nc2cc(NCc3cc(F)cc(F)c3)c(C(N)=O)cn2)cc1 [Example 305, 6-[(4-{[(2-aminoethyl)sulfonyl]amino}phenyl)amino]-4-[(3,5-difluorobenzyl)amino]pyridine-3-carboxyamide]
71		NC(=O)c1cnc(Nc2ccc(N3CCCS3(=O)=O)cc2)cc1NCc1ccccc1 [Example 307, 4-(benzylamino)-6-{[4-(1,1-dioxo-1,2-thiazolidin-2-yl)phenyl]amino}pyridine-3-carboxyamide]
60		NC(=O)c1cnc(Nc2ccc(NC(=O)C3CCNCC3)cc2)cc1NCc1cc(F)cc(F)c1 [Example 315, 4-[(3,5-difluorobenzyl)amino]-6-({4-[(piperidin-4-ylcarbonyl)amino]phenyl}amino)pyridine-3-carboxyamide hydrochloride]
61		NC(=O)c1cnc(Nc2ccc(NC(=O)[C@@H]3CCCN3)cc2)cc1NCc1ccccc1 [Example 316, 4-(benzylamino)-6-({4-(L-prolylamino)phenyl]amino}pyridine-3-carboxyamide hydrochloride]
62		NC(=O)c1cnc(Nc2ccc(NC(=O)[C@@H]3CCCN3)cc2)cc1NCc1cc(F)cc(F)c1 [Example 317, 4-[(3,5-difluorobenzyl)amino]-6-{[4-(L-prolylamino)phenyl]amino}pyridine-3-carboxyamide hydrochloride]
83		NC(=O)c1cnc(Nc2ccc(CN3CCOCC3)cc2)cc1NCc1ccccc1 [Example 318, 4-(benzylamino)-6-{[4-(morpholinomethyl)phenyl]amino}pyridine-3-carboxyamide]
71		NC(=O)c1cnc(Nc2ccc(C(=O)C(F)(F)F)cc2)cc1NCc1cc(F)cc(F)c1 [Example 326, 4-[(3,5-difluorobenzyl)amino]-6-{[(4-trifluoroacetyl)phenyl]amino}pyridine-3-carboxyamide]
70		NC(=O)c1cnc(Nc2ccc(S(N)(=O)=O)cc2)cc1NCc1cc(F)cc(F)c1 [Example 328, 4-[(3,5-difluorobenzyl)amino]-6-[(4-sulfamoylphenyl)amino]pyridine-3-carboxyamide]
59		COCCNS(=O)(=O)c1ccc(Nc2cc(NCc3cc(F)cc(F)c3)c(C(N)=O)cn2)cc1 [Example 330, 4-[(3,5-difluorobenzyl)amino]-6-({4-[(2-methoxyethyl)sulfamoyl]phenyl}amino)pyridine-3-carboxyamide]
69		NC(=O)c1cnc(Nc2ccc(C(=O)O)cc2)cc1NCc1cc(F)cc(F)c1 [Example 332, 6-[(4-carboxyphenyl)amino]-4-[(3,5-difluorobenzyl)amino]pyridine-3-carboxyamide]
	79	NC(=O)c1cnc(Nc2ccc(N3CCOCC3)cc2)cc1NC1CCCCC1 [Example 345, 4-cyclohexylamino-6-[(4-morpholinophenyl)amino]pyridine-3-carboxyamide]
	72	CS(=O)(=O)N1CCN(c2ccc(Nc3cc(NC4CCCCC4)c(C(N)=O)cn3)cc2)CC1 [Example 346, 4-cyclohexylamino-6-({4-[4-(methylsulfonyl)piperazin-1-yl]phenyl}amino)pyridine-3-carboxyamide]
	90	CC1CCCCC1Nc1cc(Nc2ccc(N3CCOCC3)cc2)ncc1C(N)=O (stereo not drawn) [Example 349, 4-[(2-methylcyclohexyl)amino]-6-[(4-morpholinophenyl)amino]pyridine-3-carboxyamide]

Second part, the compound before the results:

SMILES	inhibition at 0.1 µM [%]	inhibition at 1 µM [%]
N#CCCN1CCN(c2ccc(Nc3cc(NCc4ccccc4)c(C(N)=O)cn3)cc2)CC1 [Example 241]	70	
CN1CCCN(c2ccc(Nc3cc(NCc4ccccc4)c(C(N)=O)cn3)cc2)CC1 [Example 244, 4-(benzylamino)-6-{[4-(4-methyl-1,4-diazepan-1-yl)phenyl]amino}pyridine-3-carboxyamide]	59	
NC(=O)c1cnc(Nc2ccc(N3CCCN(CCO)CC3)cc2)cc1NCc1ccccc1 [Example 245, 4-(benzylamino)-6-({4-[4-(2-hydroxyethyl)-1,4-diazepan-1-yl]phenyl}amino)pyridine-3-carboxyamide]	62	
N#CCC(=O)N1CCN(c2ccc(Nc3cc(NCc4ccccc4)c(C(N)=O)cn3)cc2)CC1 [Example 262, 4-(benzylamino)-6-({4-[4-(cyanoacetyl)piperazin-1-yl]phenyl}amino)pyridine-3-carboxyamide]	78	
N#CCC(=O)N1CCN(c2ccc(Nc3cc(NCc4cccc(F)c4F)c(C(N)=O)cn3)cc2)CC1 [Example 263, 6-({4-[4-(cyanoacetyl)piperazin-1-yl]phenyl}amino)-4-[(2,3-difluorobenzyl)amino]pyridine-3-carboxyamide]	98	
N#CCC(=O)N1CCN(c2ccc(Nc3cc(NCc4cc(F)cc(F)c4)c(C(N)=O)cn3)cc2)CC1 [Example 264, 6-({4-[4-(cyanoacetyl)piperazin-1-yl]phenyl}amino)-4-[(3,5-difluorobenzyl)amino]pyridine-3-carboxyamide]	92	
N#CCC(=O)N1CCN(c2ccc(Nc3cc(NCc4cc(F)ccc4F)c(C(N)=O)cn3)cc2)CC1 [Example 265, 6-({4-[4-(cyanoacetyl)piperazin-1-yl]phenyl}amino)-4-[(2,5-difluorobenzyl)amino]pyridine-3-carboxyamide]	74	
N#CCC(=O)N1CCN(c2ccc(Nc3cc(NCc4c(F)cccc4F)c(C(N)=O)cn3)cc2)CC1 [Example 266, 6-({4-[4-(cyanoacetyl)piperazin-1-yl]phenyl}amino)-4-[(2,6-difluorobenzyl)amino]pyridine-3-carboxyamide]	77	
N#CCC(=O)N1CCN(c2cccc(Nc3cc(NCc4cc(F)cc(F)c4)c(C(N)=O)cn3)c2)CC1 [Example 267, 6-({3-[4-(cyanoacetyl)piperazin-1-yl]phenyl}amino)-4-[(3,5-difluorodibenzyl)amino]pyridine-3-carboxyamide]	72	
N#CCC(=O)N1CCCN(c2ccc(Nc3cc(NCc4ccccc4)c(C(N)=O)cn3)cc2)CC1 [Example 268, 4-(benzylamino)-6-({4-[4-(cyanoacetyl)-1,4-diazepan-1-yl]phenyl}amino)pyridine-3-carboxyamide]	65	
CCN(CC)CC(=O)N1CCN(c2ccc(Nc3cc(NCc4ccccc4)c(C(N)=O)cn3)cc2)CC1 [Example 274, 4-(benzylamino)-6-({4-[4-(N,N-diethylglycyl)piperazin-1-yl]phenyl}amino)pyridine-3-carboxyamide]	79	
CCN(CC)CC(=O)N1CCN(c2ccc(Nc3cc(NCc4cc(F)cc(F)c4)c(C(N)=O)cn3)cc2)CC1 [Example 275, 6-({4-[4-(N,N-diethylglycyl)piperazin-1-yl]phenyl}amino)-4-[(3,5-difluorobenzyl)amino]pyridine-3-carboxyamide]	96	
CCN(CC)CC(=O)N1CCC(c2ccc(Nc3cc(NCc4ccccc4)c(C(N)=O)cn3)cc2)CC1 [Example 277, 4-(benzylamino)-6-({4-[1-(N,N-diethylglycyl)piperidin-4-yl]phenyl}amino)pyridine-3-carboxyamide]	70	
CCN(CC)C(=O)Nc1ccc(Nc2cc(NCc3ccccc3)c(C(N)=O)cn2)cc1 [Example 279, 4-(benzylamino)-6-({4-[(diethylcarbamoyl)amino]phenyl}amino)pyridine-3-carboxyamide]	59	
CCN(CC)C(=O)N1CCN(c2ccc(Nc3cc(NCc4ccccc4)c(C(N)=O)cn3)cc2)CC1 [Example 282, 4-(benzylamino)-6-({4-[(4-diethylcarbamoyl)piperazin-1-yl]phenyl}amino)pyridine-3-carboxyamide]	89	
CC(C)NC(=O)N1CCN(c2ccc(Nc3cc(NCc4ccccc4)c(C(N)=O)cn3)cc2)CC1 [Example 283]	79	
CC(C)NC(=O)N1CCN(c2ccc(Nc3cc(NCc4cccc([N+](=O)[O-])c4)c(C(N)=O)cn3)cc2)CC1 [Example 284, 4-[(3-nitrobenzyl)amino]-6-[(4-{[4-(propan-2-yl)carbamoyl]piperazin-1-yl}phenyl)amino]pyridine-3-carboxyamide]	63	
CCN(CC)C(=O)N1CCC(Nc2ccc(Nc3cc(NCc4ccccc4)c(C(N)=O)cn3)cc2)CC1 [Example 290, 4-(benzylamino)-6-[(4-{[1-(diethylcarbamoyl)piperidin-4-yl]amino}phenyl)amino]pyridine-3-carboxyamide]	71	
CS(=O)(=O)N1CCN(c2ccc(Nc3cc(NCc4cccc(F)c4F)c(C(N)=O)cn3)cc2)CC1 [Example 292, 4-[(2,3-difluorobenzyl)amino]-6-({4-[4-(methylsulfonyl)piperazin-1-yl]phenyl}amino)pyridine-3-carboxyamide]	84	
CS(=O)(=O)N1CCN(c2ccc(Nc3cc(NCc4cc(F)cc(F)c4)c(C(N)=O)cn3)cc2)CC1 [Example 293, 4-[(3,5-difluorobenzyl)amino]-6-({4-[4-(methylsulfonyl)piperazin-1-yl]phenyl}amino)pyridine-3-carboxyamide]	61	
CC(C)S(=O)(=O)Nc1ccc(Nc2cc(NCc3cc(F)cc(F)c3)c(C(N)=O)cn2)cc1 [Example 302, 4-[(3,5-difluorobenzyl)amino]-6-({4-[(propan-2-ylsulfonyl)amino]phenyl}amino)pyridine-3-carboxyamide]	90	
CCN(CC)CCS(=O)(=O)Nc1ccc(Nc2cc(NCc3cc(F)cc(F)c3)c(C(N)=O)cn2)cc1 [Example 304, 6-{[4-({[2-(diethylamino)ethyl]sulfonyl}amino)phenyl]amino}-4-[(3,5-difluorobenzyl)amino]pyridine-3-carboxyamide]	78	
NC(=O)c1cnc(Nc2ccc(NC(=O)C3CCNCC3)cc2)cc1NCc1ccccc1 [Example 314, 4-(benzylamino)-6-({4-[piperidin-4-ylcarbonyl]amino]phenyl}amino)pyridine-3-carboxyamide hydrochloride]	60	
